Results published in ChEMBL document CHEMBL4507259 (2021).

What was measured:
[1] = target: Sigma intracellular receptor 2 (Homo sapiens, UniProt Q5BJF2); assay: GPCRScan assay: inhibition of Sigma 2; set-up: radioligand conc. used [nm] 5.0, parental cells HEKT
[2] = target: Glycogen synthase kinase-3 alpha (Homo sapiens) (UniProt P49840); conditions: Compound concentration 1000.0 nM
[3] = tested on: Hepatocyte growth factor receptor (Homo sapiens), P08581 [Y1235D]; conditions: Compound concentration 1000.0 nM
[4] = target: Receptor tyrosine-protein kinase erbB-3 (Homo sapiens) (UniProt P21860); conditions: Compound concentration 1000.0 nM
[5] = target: Glutamate [NMDA] receptor (Homo sapiens) (UniProt Q05586+Q12879+Q13224+O15399+O60391+Q14957+Q8TCU5); assay: NMDA CEREP ligand profiling; type: protein-complex assay
[6] = target: Tyrosine-protein kinase Fes/Fps (Homo sapiens) (UniProt P07332); conditions: Compound concentration 1000.0 nM
[7] = target: Serine/threonine-protein kinase MRCK alpha (Homo sapiens) (UniProt Q5VT25); conditions: Compound concentration 1000.0 nM
[8] = target: Dual specificity mitogen-activated protein kinase kinase 7 (Homo sapiens) (UniProt O14733); conditions: Compound concentration 1000.0 nM
[9] = target: Serine/threonine-protein kinase Nek9 (Homo sapiens) (UniProt Q8TD19); conditions: Compound concentration 1000.0 nM
[10] = target: RAF proto-oncogene serine/threonine-protein kinase (Homo sapiens) (UniProt P04049); conditions: Compound concentration 1000.0 nM
[11] = target: Macrophage colony-stimulating factor 1 receptor (Homo sapiens) (UniProt P07333); conditions: Compound concentration 1000.0 nM
[12] = target: Atypical kinase COQ8A, mitochondrial (Homo sapiens) (UniProt Q8NI60); conditions: Compound concentration 1000.0 nM
[13] = target: Aurora kinase C (Homo sapiens) (UniProt Q9UQB9); conditions: Compound concentration 1000.0 nM
[14] = target: Mitogen-activated protein kinase kinase kinase 19 (Homo sapiens) (UniProt Q56UN5); conditions: Compound concentration 1000.0 nM
[15] = target: Myosin light chain kinase, smooth muscle (Homo sapiens) (UniProt Q15746); conditions: Compound concentration 1000.0 nM
[16] = target: Mitogen-activated protein kinase kinase kinase kinase 4 (Homo sapiens) (UniProt O95819); conditions: Compound concentration 1000.0 nM
[17] = target: Tyrosine-protein kinase JAK1 (Homo sapiens) (UniProt P23458); conditions: Compound concentration 1000.0 nM
[18] = target: Serine/threonine-protein kinase TNNI3K (Homo sapiens) (UniProt Q59H18); conditions: Compound concentration 1000.0 nM
[19] = target: Inhibitor of nuclear factor kappa-B kinase subunit alpha (Homo sapiens) (UniProt O15111); conditions: Compound concentration 1000.0 nM
[20] = target: Dual specificity mitogen-activated protein kinase kinase 6 (Homo sapiens) (UniProt P52564); conditions: Compound concentration 1000.0 nM
[21] = target: Homeodomain-interacting protein kinase 3 (Homo sapiens) (UniProt Q9H422); conditions: Compound concentration 1000.0 nM
[22] = target: SRSF protein kinase 2 (Homo sapiens) (UniProt P78362); conditions: Compound concentration 1000.0 nM
[23] = target: Rho-associated protein kinase 2 (Homo sapiens) (UniProt O75116); conditions: Compound concentration 1000.0 nM
[24] = target: Serine/threonine-protein kinase PRP4 homolog (Homo sapiens) (UniProt Q13523); conditions: Compound concentration 1000.0 nM
[25] = tested on: Phosphatidylinositol 4,5-bisphosphate 3-kinase catalytic subunit alpha isoform (Homo sapiens), P42336 [E542K]; conditions: Compound concentration 1000.0 nM
[26] = target: 5-hydroxytryptamine receptor 2B (Homo sapiens, UniProt P41595); assay: 5-HT2B (h) CEREP ligand profiling; conditions: filed as agonist, Compound concentration 10.0 uM
[27] = target: Activin receptor type-2B (Homo sapiens) (UniProt Q13705); conditions: Compound concentration 1000.0 nM
[28] = target: Calcium/calmodulin-dependent protein kinase type II subunit delta (Homo sapiens) (UniProt Q13557); conditions: Compound concentration 1000.0 nM
[29] = target: Histamine H1 receptor (Homo sapiens) (UniProt P35367); conditions: Compound concentration 10.0 uM
[30] = target: Ribosomal protein S6 kinase alpha-6 (Homo sapiens) (UniProt Q9UK32); conditions: Compound concentration 1000.0 nM
[31] = target: GABA-A receptor; anion channel (Homo sapiens) (UniProt P14867+P47870+P18507+P28472+P48169+Q99928+Q9UN88+P34903+O00591+O14764+Q8N1C3+P18505+P78334+P47869+P31644+Q16445); assay: Cl- channel (GABA-gated) CEREP ligand profiling; type: protein-complex assay; conditions: filed as antagonist; Compound concentration 10.0 uM
[32] = target: D(1A) dopamine receptor (Homo sapiens) (UniProt P21728); assay: D1 (h) CEREP ligand profiling; conditions: filed as antagonist, Compound concentration 10.0 uM
[33] = target: Serine/threonine-protein kinase ULK1 (Homo sapiens) (UniProt O75385); conditions: Compound concentration 1000.0 nM
[34] = target: Motilin receptor (Homo sapiens) (UniProt O43193); assay: motilin (h) CEREP ligand profiling; conditions: filed as agonist, Compound concentration 10.0 uM
[35] = target: RAC-gamma serine/threonine-protein kinase (Homo sapiens) (UniProt Q9Y243); conditions: Compound concentration 1000.0 nM
[36] = target: Tyrosine-protein kinase BTK (Homo sapiens) (UniProt Q06187); conditions: Compound concentration 1000.0 nM
[37] = target: Vascular endothelial growth factor receptor 2 (Homo sapiens) (UniProt P35968); conditions: Compound concentration 1000.0 nM
[38] = target: Serine/threonine-protein kinase PAK 3 (Homo sapiens) (UniProt O75914); conditions: Compound concentration 1000.0 nM
[39] = target: BDNF/NT-3 growth factors receptor (Homo sapiens) (UniProt Q16620); conditions: Compound concentration 1000.0 nM
[40] = target: Peripheral plasma membrane protein CASK (Homo sapiens) (UniProt O14936); conditions: Compound concentration 1000.0 nM
[41] = target: cGMP-dependent protein kinase 2 (Homo sapiens) (UniProt Q13237); conditions: Compound concentration 1000.0 nM
[42] = target: Dual specificity protein kinase CLK2 (Homo sapiens) (UniProt P49760); conditions: Compound concentration 1000.0 nM
Dual specificity protein kinase CLK2 (Homo sapiens), sequence (P49760 whole entry, looked up): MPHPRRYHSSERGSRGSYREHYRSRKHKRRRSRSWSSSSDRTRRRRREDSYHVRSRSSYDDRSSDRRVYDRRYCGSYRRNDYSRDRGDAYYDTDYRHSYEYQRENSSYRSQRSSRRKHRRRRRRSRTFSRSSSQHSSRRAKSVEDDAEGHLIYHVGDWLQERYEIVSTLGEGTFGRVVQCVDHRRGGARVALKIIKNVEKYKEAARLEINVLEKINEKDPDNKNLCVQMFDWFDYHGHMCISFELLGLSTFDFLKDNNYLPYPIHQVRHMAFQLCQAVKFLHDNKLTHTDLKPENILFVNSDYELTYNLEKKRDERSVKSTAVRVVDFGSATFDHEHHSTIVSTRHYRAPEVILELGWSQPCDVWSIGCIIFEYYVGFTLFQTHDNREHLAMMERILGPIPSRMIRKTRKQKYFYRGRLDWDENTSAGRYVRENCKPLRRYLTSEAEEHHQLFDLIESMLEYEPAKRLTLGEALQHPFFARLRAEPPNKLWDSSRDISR

Sigma intracellular receptor 2, sequence (Q5BJF2 whole entry): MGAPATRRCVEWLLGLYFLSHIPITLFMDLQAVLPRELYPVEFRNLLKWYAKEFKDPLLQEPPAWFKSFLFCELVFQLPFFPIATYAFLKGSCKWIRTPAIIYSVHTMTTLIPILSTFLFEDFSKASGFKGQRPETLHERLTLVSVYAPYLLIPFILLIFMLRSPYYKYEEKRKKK
Glycogen synthase kinase-3 alpha (Homo sapiens), sequence (P49840 2-483 limits assumed): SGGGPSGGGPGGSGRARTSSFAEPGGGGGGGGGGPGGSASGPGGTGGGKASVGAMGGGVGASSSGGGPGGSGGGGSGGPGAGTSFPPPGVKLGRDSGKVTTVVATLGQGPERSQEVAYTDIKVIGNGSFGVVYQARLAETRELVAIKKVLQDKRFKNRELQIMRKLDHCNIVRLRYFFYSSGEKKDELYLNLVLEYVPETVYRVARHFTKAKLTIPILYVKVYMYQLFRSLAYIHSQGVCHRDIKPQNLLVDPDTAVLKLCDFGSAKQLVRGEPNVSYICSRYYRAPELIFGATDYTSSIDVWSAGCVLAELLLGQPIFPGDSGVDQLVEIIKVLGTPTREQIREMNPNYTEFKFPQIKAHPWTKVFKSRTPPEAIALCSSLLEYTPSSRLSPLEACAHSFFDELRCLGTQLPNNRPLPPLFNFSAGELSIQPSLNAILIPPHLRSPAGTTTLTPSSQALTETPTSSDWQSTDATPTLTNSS
Atypical kinase COQ8A, mitochondrial (Homo sapiens), sequence (Q8NI60 163-647 limits assumed): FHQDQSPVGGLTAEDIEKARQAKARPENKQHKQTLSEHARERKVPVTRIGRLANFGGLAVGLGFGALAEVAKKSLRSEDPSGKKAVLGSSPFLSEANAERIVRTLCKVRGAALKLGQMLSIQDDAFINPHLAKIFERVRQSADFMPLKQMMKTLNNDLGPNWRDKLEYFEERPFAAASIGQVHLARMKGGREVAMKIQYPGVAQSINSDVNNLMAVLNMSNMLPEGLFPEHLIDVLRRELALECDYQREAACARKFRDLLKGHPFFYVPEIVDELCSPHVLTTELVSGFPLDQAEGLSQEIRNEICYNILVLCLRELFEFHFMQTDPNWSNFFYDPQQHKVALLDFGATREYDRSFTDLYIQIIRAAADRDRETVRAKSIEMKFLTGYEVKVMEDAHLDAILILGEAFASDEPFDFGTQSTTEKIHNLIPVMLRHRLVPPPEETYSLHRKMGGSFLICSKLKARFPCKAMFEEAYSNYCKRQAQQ
Mitogen-activated protein kinase kinase kinase kinase 4 (Homo sapiens), sequence (O95819 2-1239 limits assumed): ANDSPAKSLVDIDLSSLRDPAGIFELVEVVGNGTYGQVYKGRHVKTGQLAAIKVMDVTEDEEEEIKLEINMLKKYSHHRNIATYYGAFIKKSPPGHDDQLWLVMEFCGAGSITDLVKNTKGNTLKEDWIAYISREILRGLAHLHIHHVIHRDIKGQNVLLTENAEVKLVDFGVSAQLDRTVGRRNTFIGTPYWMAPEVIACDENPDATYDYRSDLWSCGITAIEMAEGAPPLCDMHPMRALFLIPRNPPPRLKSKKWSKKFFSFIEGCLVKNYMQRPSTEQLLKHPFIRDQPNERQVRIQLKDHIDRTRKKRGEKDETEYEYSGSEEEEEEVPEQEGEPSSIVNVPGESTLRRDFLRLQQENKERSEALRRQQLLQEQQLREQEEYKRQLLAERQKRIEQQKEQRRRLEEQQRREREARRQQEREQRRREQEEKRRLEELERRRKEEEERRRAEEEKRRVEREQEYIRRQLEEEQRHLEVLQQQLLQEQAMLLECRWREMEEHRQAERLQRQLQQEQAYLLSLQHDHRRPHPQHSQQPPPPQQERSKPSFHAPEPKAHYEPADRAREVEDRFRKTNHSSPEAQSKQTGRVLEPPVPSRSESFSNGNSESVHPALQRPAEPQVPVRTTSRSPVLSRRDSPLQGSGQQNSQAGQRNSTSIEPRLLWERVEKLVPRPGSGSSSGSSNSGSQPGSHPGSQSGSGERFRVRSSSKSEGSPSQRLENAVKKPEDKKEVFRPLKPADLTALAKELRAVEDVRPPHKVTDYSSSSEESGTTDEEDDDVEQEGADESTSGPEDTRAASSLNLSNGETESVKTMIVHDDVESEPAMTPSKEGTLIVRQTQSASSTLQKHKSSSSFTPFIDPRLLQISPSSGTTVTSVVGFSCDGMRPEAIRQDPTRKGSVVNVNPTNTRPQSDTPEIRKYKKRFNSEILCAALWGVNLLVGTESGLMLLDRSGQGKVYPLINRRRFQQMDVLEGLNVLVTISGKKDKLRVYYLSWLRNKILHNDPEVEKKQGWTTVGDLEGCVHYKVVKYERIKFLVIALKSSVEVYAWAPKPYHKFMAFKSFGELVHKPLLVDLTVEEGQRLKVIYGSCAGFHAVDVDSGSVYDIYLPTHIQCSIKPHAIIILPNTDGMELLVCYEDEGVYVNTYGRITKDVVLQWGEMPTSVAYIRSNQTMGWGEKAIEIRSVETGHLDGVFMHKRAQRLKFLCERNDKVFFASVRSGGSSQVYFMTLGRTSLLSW
Receptor tyrosine-protein kinase erbB-3 (Homo sapiens), sequence (P21860 whole entry): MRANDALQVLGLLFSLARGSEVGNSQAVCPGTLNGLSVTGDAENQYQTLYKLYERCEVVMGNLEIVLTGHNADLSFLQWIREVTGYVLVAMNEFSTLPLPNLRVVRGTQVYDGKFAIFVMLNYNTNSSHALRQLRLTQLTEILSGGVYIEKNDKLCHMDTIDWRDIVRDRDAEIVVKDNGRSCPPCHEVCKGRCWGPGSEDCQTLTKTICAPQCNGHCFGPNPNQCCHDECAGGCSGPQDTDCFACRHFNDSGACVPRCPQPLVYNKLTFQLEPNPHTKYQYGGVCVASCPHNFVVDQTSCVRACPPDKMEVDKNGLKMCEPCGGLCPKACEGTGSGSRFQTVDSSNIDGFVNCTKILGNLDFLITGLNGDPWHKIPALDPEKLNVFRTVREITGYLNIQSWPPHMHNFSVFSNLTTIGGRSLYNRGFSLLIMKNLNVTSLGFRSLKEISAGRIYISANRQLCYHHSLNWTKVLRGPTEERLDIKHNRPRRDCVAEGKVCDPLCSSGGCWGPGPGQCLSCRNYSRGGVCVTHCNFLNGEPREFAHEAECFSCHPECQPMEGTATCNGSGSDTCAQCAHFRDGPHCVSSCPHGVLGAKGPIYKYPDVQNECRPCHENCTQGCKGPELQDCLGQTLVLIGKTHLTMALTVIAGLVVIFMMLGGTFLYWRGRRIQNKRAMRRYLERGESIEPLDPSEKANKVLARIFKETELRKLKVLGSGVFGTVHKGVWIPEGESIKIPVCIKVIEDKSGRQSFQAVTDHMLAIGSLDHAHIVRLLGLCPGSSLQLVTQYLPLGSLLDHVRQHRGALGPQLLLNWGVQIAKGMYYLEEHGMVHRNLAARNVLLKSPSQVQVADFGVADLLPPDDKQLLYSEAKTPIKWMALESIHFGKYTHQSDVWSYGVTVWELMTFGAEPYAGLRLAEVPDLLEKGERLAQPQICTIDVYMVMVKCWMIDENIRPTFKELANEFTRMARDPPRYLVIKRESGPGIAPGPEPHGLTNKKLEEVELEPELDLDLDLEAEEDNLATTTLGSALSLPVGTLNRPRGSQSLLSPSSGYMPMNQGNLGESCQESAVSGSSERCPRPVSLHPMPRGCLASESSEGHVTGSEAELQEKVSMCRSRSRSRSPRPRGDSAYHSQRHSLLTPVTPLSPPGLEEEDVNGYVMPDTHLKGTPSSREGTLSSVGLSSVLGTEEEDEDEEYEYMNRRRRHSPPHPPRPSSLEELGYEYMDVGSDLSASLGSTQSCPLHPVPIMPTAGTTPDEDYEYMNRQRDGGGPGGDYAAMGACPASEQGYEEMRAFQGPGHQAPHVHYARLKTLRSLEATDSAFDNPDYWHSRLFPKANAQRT
Activin receptor type-2B (Homo sapiens), sequence (Q13705 whole entry): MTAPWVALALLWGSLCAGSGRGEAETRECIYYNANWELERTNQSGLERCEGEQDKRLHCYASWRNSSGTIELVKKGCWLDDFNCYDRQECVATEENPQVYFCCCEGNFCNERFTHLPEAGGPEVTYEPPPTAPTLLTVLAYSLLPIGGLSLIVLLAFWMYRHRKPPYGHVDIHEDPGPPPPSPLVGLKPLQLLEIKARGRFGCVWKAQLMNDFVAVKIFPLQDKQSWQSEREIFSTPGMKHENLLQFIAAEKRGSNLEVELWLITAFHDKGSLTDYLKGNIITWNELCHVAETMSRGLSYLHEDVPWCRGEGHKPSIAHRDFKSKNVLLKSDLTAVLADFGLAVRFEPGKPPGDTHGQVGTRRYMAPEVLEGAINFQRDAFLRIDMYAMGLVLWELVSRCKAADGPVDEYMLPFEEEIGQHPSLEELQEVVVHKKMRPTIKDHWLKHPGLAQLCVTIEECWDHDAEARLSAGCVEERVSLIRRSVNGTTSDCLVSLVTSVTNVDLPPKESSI
Aurora kinase C (Homo sapiens), sequence (Q9UQB9 whole entry): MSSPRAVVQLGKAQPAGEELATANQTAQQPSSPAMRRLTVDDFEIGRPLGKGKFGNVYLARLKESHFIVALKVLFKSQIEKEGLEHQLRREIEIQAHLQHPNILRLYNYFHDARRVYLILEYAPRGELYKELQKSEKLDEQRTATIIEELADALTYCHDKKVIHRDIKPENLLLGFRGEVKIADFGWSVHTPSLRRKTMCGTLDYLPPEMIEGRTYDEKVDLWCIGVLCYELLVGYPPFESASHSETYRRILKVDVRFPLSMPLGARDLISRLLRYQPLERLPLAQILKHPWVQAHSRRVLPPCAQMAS

CNC(=O)Nc1ccc2c(c1)CC[C@@]21OC(=O)N(CC(=O)N(Cc2ccc(F)cc2)[C@@H](C)C(F)(F)F)C1=O [A-485]
inactive: residual activity [2] 99% | residual activity [3] 81% | residual activity [4] 89% | inhibition ([5]; filed as antagonist; Compound concentration 10.0 uM) 4% | residual activity [6] 94% | residual activity [7] 100% | residual activity [8] 97% | residual activity [9] 78% | residual activity [10] 100% | residual activity [11] 99% | residual activity [12] 74% | residual activity [13] 100% | residual activity [14] 78% | residual activity [15] 66% | residual activity [16] 87% | residual activity [17] 100% | residual activity [18] 97% | residual activity [19] 92% | residual activity [20] 100% | residual activity [21] 73% | residual activity [22] 100% | residual activity [23] 96% | residual activity [24] 86% | residual activity [25] 76% | inhibition [26] 73% | residual activity [27] 96% | residual activity [28] 91% | inhibition [29] 1.99% | residual activity [30] 81% | inhibition [31] 47% | inhibition [32] -4% | residual activity [33] 70% | inhibition [34] -4% | residual activity [35] 100% | residual activity [36] 87% | residual activity [37] 83% | residual activity [38] 91% | residual activity [39] 95% | residual activity [40] 86% | residual activity [41] 86% | residual activity [42] 97%
5.53 µM: Ki ([1]; read-out: Ki)
5.13 µM: Ki ([1]; read-out: pKi (converted))

CNC(=O)Nc1ccc2c(c1)[C@@]1(CC2)OC(=O)N(CC(=O)N(Cc2ccc(F)cc2)[C@@H](C)C(F)(F)F)C1=O [A-486]
3.27 µM: Ki ([1]; read-out: Ki)
inactive: residual activity [2] 92% | residual activity [3] 93% | residual activity [4] 81% | inhibition ([5]; filed as antagonist, Compound concentration 10.0 uM) 2% | residual activity [6] 85% | residual activity [7] 98% | residual activity [8] 85% | residual activity [9] 95% | residual activity [10] 100% | residual activity [11] 98% | residual activity [12] 88% | residual activity [13] 100% | residual activity [14] 73% | residual activity [15] 88% | residual activity [16] 100% | residual activity [17] 85% | residual activity [18] 98% | residual activity [19] 100% | residual activity [20] 100% | residual activity [21] 90% | residual activity [22] 100% | residual activity [23] 95% | residual activity [24] 90% | residual activity [25] 69% | inhibition [26] 5% | residual activity [27] 100% | residual activity [28] 100% | inhibition [29] -7.68% | residual activity [30] 82% | inhibition [31] 41% | inhibition [32] -5% | residual activity [33] 64% | inhibition [34] 41% | residual activity [35] 94% | residual activity [36] 97% | residual activity [37] 84% | residual activity [38] 91% | residual activity [39] 89% | residual activity [40] 66% | residual activity [41] 85% | residual activity [42] 100%
